The results in this text go back to patent US20220324835A1 (Nurix Therapeutics, Inc., priority 2018, published 2022).

pIC50: −log10 of the molar value.

For assay [1], the target named is T1, Cbl-b (Homo sapiens, UniProt Q13191). Put plainly: Cbl-b inhibition assay (Cbl-b activity assay, FRET, Biological Example 1; 100 mM NaCl, 60 nM Src kinase). It counts as biochemical. The note with it: upper bound stated in text lists; read-out: IC50 values in the Cbl-b inhibition assay of Biological Example 1. The procedure, abridged: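 TR-FRET assay using N-terminal biotinylated Avi-tagged Cbl-b bound to streptavidin-terbium, Src kinase for Cbl-b phosphorylation, and UbcH5B irreversibly conjugated to Bodipy-Fluorescein-ubiquitin. Phosphorylated Cbl-b binds UbcH5B-Ub, bringing the fluorophores together; inhibition is read as loss of FRET signal.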

Assay [2] deals with T-cell. Put plainly: IL-2 secretion from T-cells co-stimulated with anti-CD3 and anti-CD28 antibody (Biological Example 2). It counts as cell-based, human. Particulars: Homo sapiens, T-cell, primary human total T-cells, baseline = anti-CD3/anti-CD28 stimulated cells without inhibitor, read-out: IL-2 secretion, Anti-CD3/Anti-CD28 stimulation, fold change over baseline; for fold induction at 0.3 µM: 0.3 μM compound; for fold induction at 1 µM: 1 μM compound; for fold induction at 4 µM: 4 μM compound. The procedure, abridged: (§1)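 No assay protocol given; T-cells stimulated with anti-CD3 alone or anti-CD3 plus anti-CD28, with or without Cbl-b inhibitor. Activation read as IL-2 secretion or CD25 surface staining, expressed as fold over baseline from uninhibited cells […].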

In assay [3] the test system is T-cell. Put plainly: CD25 cell surface staining on T-cells co-stimulated with anti-CD3 and anti-CD28 antibody (Biological Example 2). It counts as cell-based, human. The note with it: Homo sapiens, T-cell, primary human total T-cells, baseline = anti-CD3/anti-CD28 stimulated cells without inhibitor, read-out: CD25 staining, Anti-CD3/Anti-CD28 stimulation, fold change over baseline; for fold induction at 0.3 µM: 0.3 μM compound; for fold induction at 1 µM: 1 μM compound; for fold induction at 4 µM: 4 μM compound. The procedure, abridged: as §1

Assay [4] concerns the target T1, Cbl-b. In words: Cbl-b activity assay (Cbl-b inhibition assay), TR-FRET of Cbl-b interaction with UbcH5B-Ub. Particulars: assay buffer with 100 mM NaCl, 60 nM Src kinase; read-out: Cbl-b activity IC50. It counts as biochemical. The procedure, abridged: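 TR-FRET readout of Cbl-b binding to Bodipy-fluorescein N-terminally labeled Ub conjugated to UbcH5B C85K, measured with compound present. After compound incubation, 60 nM Src kinase with 1 mM ATP and 5 mM MgCl2 (final) was added for 1.5 h, then a further 1 h incubation; asterisked values used 50 mM NaCl buffer and 30 nM Src.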
(In general: TR-FRET usually uses a lanthanide donor and a delayed reading to cut background.)

Assay [5] has as its system T-cell. Put plainly: IL-2 secretion from T-cells stimulated with anti-CD3 antibody alone (Biological Example 2). The note with it: primary human total T-cells, read-out: IL-2 secretion, Anti-CD3 stimulation, fold change over baseline; for fold induction at 1 µM: 1 μM compound; for fold induction at 8 µM: 8 μM compound. It counts as cell-based.
Assay [6] relates to T-cell. Put plainly: CD25 cell surface staining on T-cells stimulated with anti-CD3 antibody alone (Biological Example 2). It counts as cell-based. Particulars: primary human total T-cells, baseline = anti-CD3/anti-CD28 stimulated cells without inhibitor, read-out: CD25 staining, Anti-CD3 stimulation, fold change over baseline; for fold induction at 1 µM: 1 μM compound; for fold induction at 8 µM: 8 μM compound.

T1 sequence (Q13191 36-427): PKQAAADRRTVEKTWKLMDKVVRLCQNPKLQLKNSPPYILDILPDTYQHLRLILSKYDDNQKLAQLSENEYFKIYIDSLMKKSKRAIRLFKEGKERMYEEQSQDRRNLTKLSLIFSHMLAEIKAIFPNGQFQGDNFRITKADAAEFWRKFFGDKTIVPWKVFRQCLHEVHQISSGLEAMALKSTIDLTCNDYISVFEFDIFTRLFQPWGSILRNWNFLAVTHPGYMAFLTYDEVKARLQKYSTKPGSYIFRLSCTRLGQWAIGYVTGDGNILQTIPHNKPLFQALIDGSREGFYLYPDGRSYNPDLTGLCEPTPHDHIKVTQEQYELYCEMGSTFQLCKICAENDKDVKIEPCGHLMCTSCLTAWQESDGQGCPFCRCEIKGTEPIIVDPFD

A word on the pIC50: it is −log10 of the IC50, conventionally taken in molar units. For `Cn1cnnc1CC1(c2cccc(N3Cc4c(cc(CN5CCC(C)(F)C5)cc4C(F)(F)F)C3=O)c2)COC1` (centres unmarked) [Compound 435, 6-((3-fluoro-3-methylpyrrolidin-1-yl)methyl)-2-(3-(3-((4-methyl-4H-1,2,4-triazol-3-yl)methyl)oxetan-3-yl)phenyl)-4-(trifluoromethyl)isoindolin-1-one], the pIC50 was not below 7.00 at Cbl-b [1] and more than 7.00 at Cbl-b [4]. Besides, the values for the fold induction at 0.3 µM in the assay on T-cell [2] and with T-cell [3] were more than 7.5 and 1.31 to 1.5, respectively. Besides, the fold induction at 1 µM was more than 7.5 in the assay with T-cell [2], 1.31 to 1.5 with T-cell [3], more than 0.201 with T-cell [5] and more than 1 in the assay with T-cell [6].

As for `Cn1cnnc1CC1(c2cccc(N3Cc4c(cc(CO)cc4C(F)(F)F)C3=O)c2)COC1` [Compound 437, 6-(hydroxymethyl)-2-(3-(3-((4-methyl-4H-1,2,4-triazol-3-yl)methyl)oxetan-3-yl)phenyl)-4-(trifluoromethyl)isoindolin-1-one], the negative-log IC50 (pIC50) at Cbl-b [1] is not below 7.00; at Cbl-b [4], more than 7.00. The fold induction at 0.3 µM with T-cell [2] is 2.51 to 5; in the assay with T-cell [3] it was 1.01 to 1.3. For the same molecule, the fold induction at 1 µM in the assay on T-cell [2] lay in the range of 5 to 7.5; with T-cell [3] it was 1.31 to 1.5; with T-cell [5], 0.101 to 0.15; in the assay on T-cell [6], 0.601 to 0.8. The fold induction at 4 µM was more than 7.5 with T-cell [2] and 1.51 to 1.75 in the assay on T-cell [3]. The fold induction at 8 µM with T-cell [5] is 0.051 to 0.1; in the assay on T-cell [6], 0.601 to 0.8.

As to `Cn1cnnc1C(F)(F)[C@](C)(F)c1cccc(N2Cc3c(cc(-c4cncc(F)c4)cc3C(F)(F)F)C2=O)c1` [Compound 440, (R)-6-(5-fluoropyridin-3-yl)-2-(3-(1,1,2-trifluoro-1-(4-methyl-4H-1,2,4-triazol-3-yl)propan-2-yl)phenyl)-4-(trifluoromethyl)isoindolin-1-one], the pIC50 is not below 6.52 at Cbl-b [1] and 6.52 to 7.00 on Cbl-b [4]. Moreover, the results for the fold induction at 0.3 µM in the assay with T-cell [2] and with T-cell [3] were 1.01 to 2.5 and less than 1, respectively. Besides, the fold induction at 1 µM with T-cell [2] was in the range of 2.51 to 5; in the assay with T-cell [3] it was 1.01 to 1.3; in the assay on T-cell [5], 0.101 to 0.15; in the assay with T-cell [6], 0.601 to 0.8. Also, the fold induction at 4 µM in the assay on T-cell [2] was in the range of 2.51 to 5; in the assay on T-cell [3], 1.01 to 1.3. Also, the fold induction at 8 µM in the assay on T-cell [5] lay within 0.151 to 0.2; in the assay with T-cell [6] it was 0.801 to 1.

Regarding `CN1CCN(c2cc3c(c(C(F)(F)F)c2)CN(c2cccc([C@@](C)(F)C(F)(F)c4nncn4C)c2)C3=O)CC1` [Compound 441, (R)-6-(4-Methylpiperazin-1-yl)-2-(3-(1,1,2-trifluoro-1-(4-methyl-4H-1,2,4-triazol-3-yl)propan-2-yl)phenyl)-4-(trifluoromethyl)isoindolin-1-one], the pIC50 on Cbl-b [1] was not below 6.52; at Cbl-b [4] it was 6.52 to 7.00. Further, the fold induction at 0.3 µM in the assay on T-cell [2] is 1.01 to 2.5; with T-cell [3], 1.01 to 1.3. Moreover, the fold induction at 1 µM lay in the range of 1.01 to 2.5 in the assay with T-cell [2], 1.01 to 1.3 in the assay with T-cell [3], 0.051 to 0.1 with T-cell [5] and 0.601 to 0.8 in the assay with T-cell [6]. The values for the fold induction at 4 µM in the assay on T-cell [2] and in the assay with T-cell [3] were 2.51 to 5 and 1.01 to 1.3, respectively. The fold induction at 8 µM in the assay on T-cell [5] is 0.151 to 0.2; in the assay on T-cell [6], more than 1.

For `C[C@@H]1CN(C)CCN1c1cc2c(c(C(F)(F)F)c1)CN(c1cccc([C@@](C)(F)C(F)(F)c3nncn3C)c1)C2=O` [Compound 443, 6-((R)-2,4-Dimethylpiperazin-1-yl)-2-(3-((R)-1,1,2-trifluoro-1-(4-methyl-4H-1,2,4-triazol-3-yl)propan-2-yl)phenyl)-4-(trifluoromethyl)isoindolin-1-one], the pIC50 at Cbl-b [1] is not below 7.00; at Cbl-b [4], more than 7.00. Besides, the results for the fold induction at 0.3 µM with T-cell [2] and with T-cell [3] were 1.01 to 2.5 and 1.01 to 1.3, respectively. Moreover, the fold induction at 1 µM was 1.01 to 2.5 in the assay with T-cell [2], 1.01 to 1.3 with T-cell [3], less than 0.05 in the assay with T-cell [5] and 0.801 to 1 in the assay with T-cell [6]. Further, the fold induction at 4 µM in the assay with T-cell [2] is 2.51 to 5; in the assay with T-cell [3], 1.31 to 1.5. Besides, the fold induction at 8 µM in the assay on T-cell [5] is 0.101 to 0.15; in the assay with T-cell [6], more than 1.

Regarding `C[C@H]1CN(C)CCN1c1cc2c(c(C(F)(F)F)c1)CN(c1cccc([C@@](C)(F)C(F)(F)c3nncn3C)c1)C2=O` [Compound 444, 6-((S)-2,4-Dimethylpiperazin-1-yl)-2-(3-((R)-1,1,2-trifluoro-1-(4-methyl-4H-1,2,4-triazol-3-yl)propan-2-yl)phenyl)-4-(trifluoromethyl)isoindolin-1-one], the pIC50 on Cbl-b [1] is not below 7.00; on Cbl-b [4], more than 7.00. For the same molecule, the fold induction at 0.3 µM with T-cell [2] lay in the range of 1.01 to 2.5; in the assay on T-cell [3], 1.01 to 1.3. Moreover, the fold induction at 1 µM with T-cell [2] is 5 to 7.5; in the assay on T-cell [3] it was 1.01 to 1.3; in the assay with T-cell [5] it was 0.101 to 0.15; in the assay on T-cell [6], more than 1. Moreover, the figures for the fold induction at 4 µM in the assay on T-cell [2] and in the assay on T-cell [3] were more than 7.5 and 1.31 to 1.5, respectively. Further, the fold induction at 8 µM in the assay with T-cell [5] was more than 0.201; in the assay on T-cell [6] it was more than 1.

Turning to `CN1CC2CCC(C1)N2c1cc2c(c(C(F)(F)F)c1)CN(c1cccc([C@@](C)(F)C(F)(F)c3nncn3C)c1)C2=O` [Compound 445, 6-(3-Methyl-3,8-diazabicyclo[3.2.1]octan-8-yl)-2-(3-((R)-1,1,2-trifluoro-1-(4-methyl-4H-1,2,4-triazol-3-yl)propan-2-yl)phenyl)-4-(trifluoromethyl)isoindolin-1-one], the pIC50 on Cbl-b [1] is not below 7.00; on Cbl-b [4], more than 7.00. For the same molecule, the fold induction at 0.3 µM with T-cell [2] lay within 5 to 7.5; in the assay on T-cell [3] it was 1.31 to 1.5. Also, the fold induction at 1 µM with T-cell [2] is more than 7.5; with T-cell [3], 1.51 to 1.75; in the assay on T-cell [5] it was more than 0.201; in the assay on T-cell [6], more than 1. Further, the fold induction at 4 µM in the assay on T-cell [2] was more than 7.5; in the assay with T-cell [3], 1.51 to 1.75. For the same molecule, the results for the fold induction at 8 µM in the assay with T-cell [5] and in the assay on T-cell [6] were more than 0.201 and more than 1, respectively.

For `Cn1cnnc1C(F)(F)[C@](C)(F)c1cccc(N2Cc3c(cc(CN4CC(C(F)F)C4)cc3C(F)(F)F)C2=O)c1` [Compound 453, (R)-6-((3-(difluoromethyl)azetidin-1-yl)methyl)-2-(3-(1,1,2-trifluoro-1-(4-methyl-4H-1,2,4-triazol-3-yl)propan-2-yl)phenyl)-4-(trifluoromethyl)isoindolin-1-one], the pIC50 on Cbl-b [1] is not below 7.00; at Cbl-b [4] it was more than 7.00. Moreover, the figures for the fold induction at 0.3 µM in the assay with T-cell [2] and with T-cell [3] were 5 to 7.5 and 1.31 to 1.5, respectively. The fold induction at 1 µM in the assay with T-cell [2] was more than 7.5; in the assay with T-cell [3], 1.31 to 1.5; with T-cell [5], more than 0.201; with T-cell [6] it was more than 1. Also, the figures for the fold induction at 4 µM with T-cell [2] and with T-cell [3] were more than 7.5 and 1.31 to 1.5, respectively. In addition, the fold induction at 8 µM in the assay with T-cell [5] is 0.151 to 0.2; in the assay on T-cell [6], more than 1.

As to `Cn1cnnc1C(F)(F)[C@](C)(F)c1cccc(N2Cc3c(cc(CN4CC[C@H](C#N)C4)cc3C(F)(F)F)C2=O)c1` [Compound 454, (S)-1-((3-oxo-2-(3-((R)-1,1,2-trifluoro-1-(4-methyl-4H-1,2,4-triazol-3-yl)propan-2-yl)phenyl)-7-(trifluoromethyl)isoindolin-5-yl)methyl)pyrrolidine-3-carbonitrile], the pIC50 at Cbl-b [1] is not below 7.00; at Cbl-b [4], more than 7.00. The fold induction at 0.3 µM with T-cell [2] was 5 to 7.5; in the assay on T-cell [3], 1.01 to 1.3. The fold induction at 1 µM in the assay on T-cell [2] is more than 7.5; with T-cell [3], 1.31 to 1.5; with T-cell [5] it was more than 0.201; in the assay on T-cell [6], more than 1. For the same molecule, the figures for the fold induction at 4 µM in the assay with T-cell [2] and in the assay with T-cell [3] were more than 7.5 and 1.31 to 1.5, respectively. In addition, the fold induction at 8 µM is more than 0.201 with T-cell [5] and more than 1 in the assay with T-cell [6].
